Molecular target: mGluR5 (Homo sapiens, UniProt P41594)
Test: inhibition of the glutamate induced elevation of intracellular Ca2+ concentration
Settings: for mGluR5 Activity inh. at 10 μM [%]: inhibition of glutamate induced elevation of intracellular Ca2+ concentration at 10 μM; for inhibition at 10 µM: read-out: mGluR5 Activity inh. at 10 μM [%]
Excerpt: This can be determined in vitro for example at recombinant human metabotropic glutamate receptors, especially PLC-coupled subtypes thereof such as mGluR5, using different procedures like, for example, measurement of the inhibition of the agonist induced elevation of intracellular Ca^2+ concentration in accordance with L. P. Daggett et al., Neuropharm.

mGluR5, sequence (P41594 21-1180 isoform P41594-2 limits assumed): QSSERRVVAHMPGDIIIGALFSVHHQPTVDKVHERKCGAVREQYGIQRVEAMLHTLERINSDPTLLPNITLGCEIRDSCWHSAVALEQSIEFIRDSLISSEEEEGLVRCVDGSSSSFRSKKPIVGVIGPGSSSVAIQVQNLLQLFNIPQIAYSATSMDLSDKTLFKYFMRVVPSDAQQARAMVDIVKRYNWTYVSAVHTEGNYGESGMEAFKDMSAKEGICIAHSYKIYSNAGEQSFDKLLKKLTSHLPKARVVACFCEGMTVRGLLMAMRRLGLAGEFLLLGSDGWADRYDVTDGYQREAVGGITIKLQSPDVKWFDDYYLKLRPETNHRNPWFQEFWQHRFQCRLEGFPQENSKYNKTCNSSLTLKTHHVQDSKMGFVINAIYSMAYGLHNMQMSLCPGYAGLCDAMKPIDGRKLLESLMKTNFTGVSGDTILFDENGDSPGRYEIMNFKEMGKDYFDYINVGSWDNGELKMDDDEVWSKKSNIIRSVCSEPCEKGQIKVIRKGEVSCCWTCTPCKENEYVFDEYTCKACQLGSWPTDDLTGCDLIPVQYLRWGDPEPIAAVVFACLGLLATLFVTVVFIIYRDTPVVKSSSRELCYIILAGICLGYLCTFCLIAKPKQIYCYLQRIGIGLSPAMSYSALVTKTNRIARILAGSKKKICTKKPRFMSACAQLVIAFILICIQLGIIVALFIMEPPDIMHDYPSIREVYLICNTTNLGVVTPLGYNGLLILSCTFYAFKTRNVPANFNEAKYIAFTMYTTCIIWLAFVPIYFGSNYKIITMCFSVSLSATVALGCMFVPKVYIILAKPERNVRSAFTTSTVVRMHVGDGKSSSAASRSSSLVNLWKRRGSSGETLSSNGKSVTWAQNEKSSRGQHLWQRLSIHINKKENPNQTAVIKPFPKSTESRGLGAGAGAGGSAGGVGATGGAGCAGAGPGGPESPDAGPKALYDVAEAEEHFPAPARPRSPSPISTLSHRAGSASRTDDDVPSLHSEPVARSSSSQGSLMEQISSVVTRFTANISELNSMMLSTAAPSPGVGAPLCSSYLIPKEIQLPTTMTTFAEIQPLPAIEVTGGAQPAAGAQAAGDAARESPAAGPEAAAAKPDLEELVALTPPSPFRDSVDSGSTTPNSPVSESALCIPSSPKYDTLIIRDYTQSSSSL

| SMILES | mGluR5 Activity inh. at 10 μM [%] | inhibition at 10 µM [%] |
| --- | --- | --- |
| Cc1ccc(Nc2ncc(C(=O)N3CCC[C@@H]4CCC[C@@H]43)cc2Cl)cn1 [Compound 4.26, [5-Chloro-6-(6-methyl-pyridin-3-ylamino)-pyridin-3-yl]-(4aS,7aS)-octahydro-[1]pyridin-1-yl-methanone] | 93 |  |
| Cc1ccc(Nc2ncc(C(=O)N3CCCCC3C(C)C)cc2Cl)cn1 (stereo not drawn) [Compound 4.28, [5-Chloro-6-(6-methyl-pyridin-3-ylamino)-pyridin-3-yl]-(2-isopropyl-piperidin-1-yl)-methanone] |  | 93 |
| Cc1ccc(Nc2ncc(C(=O)N3CCCC[C@@H]3C(C)C)cc2Cl)cn1 [Compound 4.29, [5-Chloro-6-(6-methyl-pyridin-3-ylamino)-pyridin-3-yl]-((R)-2-isopropyl-piperidin-1-yl)-methanone] |  | 86 |
| CCC[C@H]1CCCCN1C(=O)c1cnc(Nc2ccc(C)nc2)c(Cl)c1 [Compound 4.35, [5-Chloro-6-(6-methyl-pyridin-3-ylamino)-pyridin-3-yl]-((S)-2-propyl-piperidin-1-yl)-methanone] |  | 85 |
| CCC1CCCN(C(=O)c2cnc(Nc3ccc(C)nc3)c(Cl)c2)C1CC (stereo not drawn) [Compound 4.37, [5-Chloro-6-(6-methyl-pyridin-3-ylamino)-pyridin-3-yl]-(2,3-diethyl-piperidin-1-yl)-methanone] |  | 94 |
| CCC(CC)C1CCCCN1C(=O)c1cnc(Nc2ccc(C)nc2)c(Cl)c1 (stereo not drawn) [Compound 4.39, [5-Chloro-6-(6-methyl-pyridin-3-ylamino)-pyridin-3-yl]-[2-(1-ethyl-propyl)-piperidin-1-yl]-methanone] |  | 96 |
| CCC1C(C)CCCN1C(=O)c1cnc(Nc2ccc(C)nc2)c(Cl)c1 (stereo not drawn) [Compound 4.40, [5-Chloro-6-(6-methyl-pyridin-3-ylamino)-pyridin-3-yl]-(2-ethyl-3-methyl-piperidin-1-yl)-methanone] |  | 98 |
| Cc1ccc(Nc2ncc(C(=O)N3CCCCC3c3ccccc3)cc2Cl)cn1 (stereo not drawn) [Compound 4.41, [5-Chloro-6-(6-methyl-pyridin-3-ylamino)-pyridin-3-yl]-(2-phenyl-piperidin-1-yl)-methanone] |  | 96 |
| Cc1ccc(Nc2ncc(C(=O)N3CCCCC3c3cccnc3)cc2Cl)cn1 (stereo not drawn) [Compound 4.43, [5-Chloro-6-(6-methyl-pyridin-3-ylamino)-pyridin-3-yl]-(3,4,5,6-tetrahydro-2H-[2,3′]bipyridinyl-1-yl)-methanone] |  | 100 |
| Cc1ccc(Nc2ncc(C(=O)N3CCCCC3C3CCCO3)cc2Cl)cn1 (stereo not drawn) [Compound 4.44, [5-Chloro-6-(6-methyl-pyridin-3-ylamino)-pyridin-3-yl]-[2-(tetrahydro-furan-2-yl)-piperidin-1-yl]-methanone] |  | 99 |
| Cc1ccc(Nc2ncc(C(=O)N3CCCCC3c3ccc(C)o3)cc2Cl)cn1 (stereo not drawn) [Compound 4.45, [5-Chloro-6-(6-methyl-pyridin-3-ylamino)-pyridin-3-yl]-[2-(5-methyl-furan-2-yl)-piperidin-1-yl]-methanone] |  | 90 |
| Cc1ccc(Nc2ncc(C(=O)N3CCCCC3c3ncco3)cc2Cl)cn1 (stereo not drawn) [Compound 4.46, [5-Chloro-6-(6-methyl-pyridin-3-ylamino)-pyridin-3-yl]-(2-oxazol-2-yl-piperidin-1-yl)-methanone] |  | 94 |
| Cc1ccc(Nc2ncc(C(=O)N3CCCCC3CCCl)cc2Cl)cn1 (stereo not drawn) [Compound 4.47, [2-(2-Chloro-ethyl)-piperidin-1-yl]-[5-chloro-6-(6-methyl-pyridin-3-ylamino)-pyridin-3-yl]-methanone] |  | 97 |
| Cc1ccc(Nc2ncc(C(=O)N3C(C)CCCC3C)cc2Cl)cn1 (stereo not drawn) [Compound 4.48, [5-Chloro-6-(6-methyl-pyridin-3-ylamino)-pyridin-3-yl]-(2,6-dimethyl-piperidin-1-yl)-methanone] |  | 99 |
| CCCC1CCCC(C)N1C(=O)c1cnc(Nc2ccc(C)nc2)c(Cl)c1 (stereo not drawn) [Compound 4.50, [5-Chloro-6-(6-methyl-pyridin-3-ylamino)-pyridin-3-yl]-(2-methyl-6-propyl-piperidin-1-yl)-methanone] |  | 98 |
| C=CC1CCCCN1C(=O)c1cnc(Nc2ccc(C)nc2)c(Cl)c1 (stereo not drawn) [Compound 4.55, [5-Chloro-6-(6-methyl-pyridin-3-ylamino)-pyridin-3-yl]-(2-vinyl-piperidin-1-yl)-methanone] |  | 96 |
| CCC=C1CCCN(C(=O)c2cnc(Nc3ccc(C)nc3)c(Cl)c2)C1 [Compound 4.58, [5-Chloro-6-(6-methyl-pyridin-3-ylamino)-pyridin-3-yl]-[3-propylidene-piperidin-1-yl]-methanone] |  | 93 |
| CCOCC1CCCCN1C(=O)c1cnc(Nc2ccc(C)nc2)c(Cl)c1 (stereo not drawn) [Compound 4.60, [5-Chloro-6-(6-methyl-pyridin-3-ylamino)-pyridin-3-yl]-(2-ethoxymethyl-piperidin-1-yl)-methanone] |  | 97 |

Now from value to molecule:

| mGluR5 Activity inh. at 10 μM [%] | inhibition at 10 µM [%] | SMILES |
| --- | --- | --- |
|  | 96 | Cc1ccc(Nc2ncc(C(=O)N3CCCC[C@H]3C(C)C)cc2Cl)cn1 [Compound 4.30, [5-Chloro-6-(6-methyl-pyridin-3-ylamino)-pyridin-3-yl]-((S)-2-isopropyl-piperidin-1-yl)-methanone] |
|  | 98 | CCCC1CCCCN1C(=O)c1cnc(Nc2ccc(C)nc2)c(Cl)c1 (stereo not drawn) [Compound 4.34, [5-Chloro-6-(6-methyl-pyridin-3-ylamino)-pyridin-3-yl]-(2-propyl-piperidin-1-yl)-methanone] |
|  | 98 | CCCCC1CCCCN1C(=O)c1cnc(Nc2ccc(C)nc2)c(Cl)c1 (stereo not drawn) [Compound 4.38, (2-Butyl-piperidin-1-yl)-[5-chloro-6(6-methyl-pyridin-3-ylamino)-pyridin-3-yl]-methanone] |
|  | 98 | Cc1ccc(Nc2ncc(C(=O)N3CCCCC3c3ccccn3)cc2Cl)cn1 (stereo not drawn) [Compound 4.42, [5-Chloro-6-(6-methyl-pyridin-3-ylamino)-pyridin-3-yl]-(3,4,5,6-tetrahydro-2H-[2,2′]bipyridinyl-1-yl)-methanone] |
|  | 66 | Cc1ccc(Nc2ncc(C(=O)N3C(C)(C)CCCC3(C)C)cc2Cl)cn1 [Compound 4.49, [5-Chloro-6-(6-methyl-pyridin-3-ylamino)-pyridin-3-yl]-(2,2,6,6-tetramethyl-piperidin-1-yl)-methanone] |
|  | 96 | CCC[C@@H]1CCC[C@@H](CC)N1C(=O)c1cnc(Nc2ccc(C)nc2)c(Cl)c1 [Compound 4.51, [5-Chloro-6-(6-methyl-pyridin-3-ylamino)-pyridin-3-yl]-((2R,6R)-2-ethyl-6-propyl-piperidin-1-yl)-methanone] |
|  | 96 | CCCC1CCC(C)CN1C(=O)c1cnc(Nc2ccc(C)nc2)c(Cl)c1 (stereo not drawn) [Compound 4.52, [5-Chloro-6-(6-methyl-pyridin-3-ylamino)-pyridin-3-yl]-(5-methyl-2-propyl-piperidin-1-yl)-methanone] |
|  | 97 | CC[C@@H]1CCCCN1C(=O)c1cnc(Nc2ccc(Cl)cc2)c(Cl)c1 [Compound 4.54, [5-Chloro-6-(4-chloro-phenylamino)-pyridin-3-yl]-((R)-2-ethyl-piperidin-1-yl)-methanone] |
| 97 |  | C/C=C\C1CCCCN1C(=O)c1cnc(Nc2ccc(C)nc2)c(Cl)c1 (stereo not drawn) [Compound 4.56, [5-Chloro-6-(6-methyl-pyridin-3-ylamino)-pyridin-3-yl]-[((Z)-2-propenyl)-piperidin-1-yl]-methanone] |
